From ChEMBL document CHEMBL1955780, “In silico scaffold evaluation and solid phase approach to identify new gelatinase inhibitors” (Bioorg Med Chem, 2012) come the findings set out here.

For orientation: IC50 means the point on the concentration scale where inhibition reaches its midpoint. Read a high IC50 as weaker potency.

Experiment [1] deals with 72 kDa type IV collagenase (Homo sapiens, UniProt P08253). In words: Inhibition of full length MMP2 using Mca-Pro-Leu-Gly-Leu-Dpa-Ala-Arg-NH2 as substrate preincubated for 1 hr prior substrate addition measured after 3 hrs by spectrofluorimetry.
Experiment [2] concerns the target Matrix metalloproteinase-9 (Homo sapiens, UniProt P14780). Description: Inhibition of MMP9 catalytic domain using Mca-Pro-Leu-Gly-Leu-Dpa-Ala-Arg-NH2 as substrate preincubated for 1 hr prior substrate addition measured after 3 hrs by spectrofluorimetry.
For experiment [3], the target named is T1, Interstitial collagenase (Homo sapiens, UniProt P03956).
T1 sequence (P03956 whole entry): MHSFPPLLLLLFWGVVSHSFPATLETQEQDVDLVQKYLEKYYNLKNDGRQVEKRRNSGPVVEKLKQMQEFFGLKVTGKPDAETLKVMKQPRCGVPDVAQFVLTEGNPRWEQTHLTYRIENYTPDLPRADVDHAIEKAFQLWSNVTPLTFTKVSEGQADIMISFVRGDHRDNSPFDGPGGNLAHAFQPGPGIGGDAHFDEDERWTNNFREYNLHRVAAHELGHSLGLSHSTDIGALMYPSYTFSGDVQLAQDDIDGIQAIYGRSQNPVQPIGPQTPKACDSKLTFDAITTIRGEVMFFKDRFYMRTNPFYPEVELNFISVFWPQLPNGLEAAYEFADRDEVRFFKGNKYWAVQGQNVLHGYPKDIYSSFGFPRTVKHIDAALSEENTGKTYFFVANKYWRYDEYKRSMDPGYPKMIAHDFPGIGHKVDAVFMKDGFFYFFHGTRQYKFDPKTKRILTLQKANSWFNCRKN
In words: Inhibition of MMP1 catalytic domain using Mca-Pro-Leu-Gly-Leu-Dpa-Ala-Arg-NH2 as substrate preincubated for 1 hr prior substrate addition measured after 3 hrs by spectrofluorimetry.

Experiment [4] addresses Stromelysin-1 (Homo sapiens, UniProt P08254). Description: Inhibition of MMP3 catalytic domain using Mca-Pro-Leu-Gly-Leu-Dpa-Ala-Arg-NH2 as substrate preincubated for 1 hr prior substrate addition measured after 3 hrs by spectrofluorimetry.
Experiment [5] has as its target Macrophage metalloelastase (Homo sapiens, UniProt P39900). In words: Inhibition of MMP12 catalytic domain using Mca-Pro-Leu-Gly-Leu-Dpa-Ala-Arg-NH2 as substrate preincubated for 1 hr prior substrate addition measured after 3 hrs by spectrofluorimetry.
For experiment [6], the target named is Neutrophil collagenase (Homo sapiens, UniProt P22894). Description: Inhibition of MMP8 catalytic domain using Mca-Pro-Leu-Gly-Leu-Dpa-Ala-Arg-NH2 as substrate preincubated for 1 hr prior substrate addition measured after 3 hrs by spectrofluorimetry.
Experiment [7] has as its target Matrix metalloproteinase-14 (Homo sapiens, UniProt P50281). Description: Inhibition of MMP14 catalytic domain using Mca-Pro-Leu-Gly-Leu-Dpa-Ala-Arg-NH2 as substrate preincubated for 1 hr prior substrate addition measured after 3 hrs by spectrofluorimetry.

Chain of Matrix metalloproteinase-9 (P14780 whole entry, the tested form may be a part): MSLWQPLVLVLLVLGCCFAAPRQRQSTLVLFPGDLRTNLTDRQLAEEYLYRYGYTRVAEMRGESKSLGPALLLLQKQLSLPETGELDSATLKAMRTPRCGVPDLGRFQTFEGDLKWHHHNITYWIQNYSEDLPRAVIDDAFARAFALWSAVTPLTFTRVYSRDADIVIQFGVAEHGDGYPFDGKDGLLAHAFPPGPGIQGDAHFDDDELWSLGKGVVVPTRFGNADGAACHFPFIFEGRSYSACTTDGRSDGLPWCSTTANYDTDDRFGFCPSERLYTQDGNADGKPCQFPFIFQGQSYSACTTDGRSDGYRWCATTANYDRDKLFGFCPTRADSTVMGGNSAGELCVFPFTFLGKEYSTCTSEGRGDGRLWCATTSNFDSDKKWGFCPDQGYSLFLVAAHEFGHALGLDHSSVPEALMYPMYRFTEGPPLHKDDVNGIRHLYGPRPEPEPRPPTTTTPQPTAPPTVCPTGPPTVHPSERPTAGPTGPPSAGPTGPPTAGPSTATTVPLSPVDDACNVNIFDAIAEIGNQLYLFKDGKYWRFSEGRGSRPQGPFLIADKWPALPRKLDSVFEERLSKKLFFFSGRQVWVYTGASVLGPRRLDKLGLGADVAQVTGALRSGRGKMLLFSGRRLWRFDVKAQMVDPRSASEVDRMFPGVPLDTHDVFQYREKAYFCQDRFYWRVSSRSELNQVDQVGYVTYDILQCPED
Chain of Neutrophil collagenase (P22894 whole entry, the tested form may be a part): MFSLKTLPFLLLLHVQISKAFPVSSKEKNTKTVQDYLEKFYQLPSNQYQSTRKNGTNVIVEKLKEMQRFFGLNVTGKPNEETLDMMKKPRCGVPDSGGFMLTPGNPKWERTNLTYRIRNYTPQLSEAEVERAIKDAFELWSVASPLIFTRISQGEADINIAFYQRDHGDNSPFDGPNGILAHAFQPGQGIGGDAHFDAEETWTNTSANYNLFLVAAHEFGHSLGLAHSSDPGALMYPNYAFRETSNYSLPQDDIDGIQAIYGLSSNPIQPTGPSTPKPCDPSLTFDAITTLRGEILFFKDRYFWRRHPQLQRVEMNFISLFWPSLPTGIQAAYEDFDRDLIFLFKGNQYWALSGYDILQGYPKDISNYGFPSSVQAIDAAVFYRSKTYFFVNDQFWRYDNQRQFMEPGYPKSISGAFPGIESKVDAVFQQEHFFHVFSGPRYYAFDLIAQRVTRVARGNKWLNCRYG
Chain of 72 kDa type IV collagenase (P08253 whole entry, the tested form may be a part): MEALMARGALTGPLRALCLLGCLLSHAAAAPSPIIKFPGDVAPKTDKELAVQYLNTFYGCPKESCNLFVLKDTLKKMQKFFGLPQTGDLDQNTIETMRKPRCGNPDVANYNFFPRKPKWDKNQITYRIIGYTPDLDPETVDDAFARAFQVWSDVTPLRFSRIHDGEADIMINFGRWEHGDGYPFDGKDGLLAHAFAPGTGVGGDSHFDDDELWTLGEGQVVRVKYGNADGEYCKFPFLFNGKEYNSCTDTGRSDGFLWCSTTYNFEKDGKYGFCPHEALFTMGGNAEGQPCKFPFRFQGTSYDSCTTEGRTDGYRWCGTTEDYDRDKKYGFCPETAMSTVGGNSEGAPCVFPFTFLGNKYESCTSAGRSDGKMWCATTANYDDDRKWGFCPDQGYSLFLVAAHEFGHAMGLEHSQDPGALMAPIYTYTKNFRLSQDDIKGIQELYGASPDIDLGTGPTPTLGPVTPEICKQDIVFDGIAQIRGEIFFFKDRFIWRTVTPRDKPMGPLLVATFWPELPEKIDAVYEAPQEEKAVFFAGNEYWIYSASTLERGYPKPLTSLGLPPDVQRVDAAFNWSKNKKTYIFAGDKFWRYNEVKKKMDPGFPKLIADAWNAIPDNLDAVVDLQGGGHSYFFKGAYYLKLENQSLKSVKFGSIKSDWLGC
Chain of Macrophage metalloelastase (P39900 whole entry, the tested form may be a part): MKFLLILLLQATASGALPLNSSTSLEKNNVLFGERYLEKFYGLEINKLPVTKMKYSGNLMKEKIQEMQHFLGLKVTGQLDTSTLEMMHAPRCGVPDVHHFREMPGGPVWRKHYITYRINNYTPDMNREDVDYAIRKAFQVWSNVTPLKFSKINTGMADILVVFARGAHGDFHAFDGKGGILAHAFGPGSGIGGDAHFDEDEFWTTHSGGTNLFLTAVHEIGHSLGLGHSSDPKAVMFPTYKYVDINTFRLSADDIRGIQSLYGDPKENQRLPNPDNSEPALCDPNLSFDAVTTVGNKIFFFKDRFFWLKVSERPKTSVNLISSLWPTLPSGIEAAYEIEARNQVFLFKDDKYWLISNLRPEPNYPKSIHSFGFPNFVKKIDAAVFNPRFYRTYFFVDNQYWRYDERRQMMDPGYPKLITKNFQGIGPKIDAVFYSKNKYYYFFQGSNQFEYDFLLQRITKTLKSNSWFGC
Chain of Stromelysin-1 (P08254 whole entry, the tested form may be a part): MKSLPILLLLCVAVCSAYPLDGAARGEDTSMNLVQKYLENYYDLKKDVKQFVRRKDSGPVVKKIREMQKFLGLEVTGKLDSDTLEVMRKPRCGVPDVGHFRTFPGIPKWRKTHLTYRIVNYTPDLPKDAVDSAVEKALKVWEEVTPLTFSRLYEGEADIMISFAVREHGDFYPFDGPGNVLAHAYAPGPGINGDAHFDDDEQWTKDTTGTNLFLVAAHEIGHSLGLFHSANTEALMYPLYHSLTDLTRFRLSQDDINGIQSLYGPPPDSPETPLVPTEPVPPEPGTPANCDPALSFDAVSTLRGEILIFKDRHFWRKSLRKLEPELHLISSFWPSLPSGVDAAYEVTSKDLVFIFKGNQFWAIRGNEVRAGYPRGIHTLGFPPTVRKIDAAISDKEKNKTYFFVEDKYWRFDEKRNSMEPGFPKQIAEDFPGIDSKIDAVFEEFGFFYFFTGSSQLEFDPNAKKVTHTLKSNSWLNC

`NC(=O)[C@@H]1CCC(=O)N1Cc1ccc(Cl)cc1`: in experiment [1], the IC50 was over 500000 nM.

Consider `O=C(NO)[C@@H]1CSCN1S(=O)(=O)c1ccc(-c2ccccc2)cc1`, for which the IC50 turned out to be 230 nM in experiment [2] and 200 nM in experiment [1].

For the compound `O=C(NO)[C@@H]1CSCN1S(=O)(=O)c1ccc(Oc2ccc(Cl)cc2)cc1`, the IC50 stood at 16 nM in experiment [2], 1000 nM in experiment [3], 13 nM in experiment [1] and 160 nM in experiment [4].

On to `O=C(NO)[C@@H]1CCC(=O)N1Cc1ccc(-c2ccccc2)cc1`, for which the IC50 in experiment [2] is 144000 nM; in experiment [1], 9000 nM.

In experiment [1], `O=C(NO)[C@@H]1CCCN1Cc1ccc(-c2ccccc2)cc1` displayed a concentration for half-maximal inhibition (IC50) of over 500000 nM.

Turning to `NC(=O)[C@@H]1CCC(=O)N1Cc1ccccc1Cl`, the IC50 in experiment [1] is over 500000 nM.

On to `O=C(NO)[C@@H]1CSCN1S(=O)(=O)c1ccc2ccccc2c1`, for which the results for the IC50 in experiment [2] and in experiment [1] were over 50000 nM and 31000 nM, respectively.

Turning to `O=C(NO)[C@@H]1CCC(=O)N1Cc1ccccc1Cl`, the half-inhibitory concentration (IC50) in experiment [1] is over 500000 nM.

As for `O=C(NO)[C@@H]1CCCN1S(=O)(=O)c1ccc(-c2ccccc2)cc1`, the IC50 was 76000 nM in experiment [2] and 4000 nM in experiment [1].

Consider `O=C(NO)[C@@H]1C[C@@H](O)CN1Cc1ccc(-c2ccccc2)cc1`, for which the IC50 in experiment [1] was over 500000 nM.

As to `O=C(NO)[C@@H]1CCC(=O)N1Cc1ccc(Cl)cc1`, in experiment [1], the half-inhibitory concentration (IC50) was over 500000 nM.

With `O=C(NO)[C@@H]1CSC(=O)N1Cc1ccc(-c2ccccc2)cc1`, the 50% inhibitory concentration (IC50) in experiment [2] was determined as 47000 nM; in experiment [1] it was 6800 nM.

In the case of `O=C(NO)[C@@H]1CS(=O)(=O)CN1S(=O)(=O)c1ccc(Oc2ccc(Cl)cc2)cc1`, the IC50 in experiment [5] worked out at 19 nM; in experiment [2] it was 0.5 nM; in experiment [6] it was 4 nM; in experiment [1] it was 0.8 nM; in experiment [7], 5 nM.

For the compound `NC(=O)[C@H]1CCC(=O)N1Cc1ccc(Cl)cc1`, in experiment [1], the IC50 was over 500000 nM.

`CCCCCc1ccc(C(=O)Nc2ccc(S(=O)(=O)N(CCN3CCOCC3)[C@@H](C(=O)NO)C(C)C)cc2)cc1` returned an IC50 in experiment [1] of under 0.1 nM.

Take `O=C(O)[C@@H]1CCC(=O)N1Cc1ccccc1Cl`: in experiment [1], the IC50 came to 315000 nM.

`NC(=O)[C@H]1CCC(=O)N1Cc1ccccc1Cl` had an IC50 in experiment [1] of over 500000 nM.

Regarding `NC(=O)[C@H]1CCC(=O)N1Cc1ccc(-c2ccccc2)cc1`, the IC50 in experiment [1] is over 500000 nM.

With `O=C(NO)[C@@H]1CSCN1S(=O)(=O)c1ccc(Oc2ccc(F)cc2)cc1`, the IC50 in experiment [2] was 5 nM; in experiment [3] it was over 50000 nM; in experiment [1], 10 nM; in experiment [4], 700 nM.

For `O=C(NO)[C@H]1CCC(=O)N1Cc1ccc(Cl)cc1`, the IC50 in experiment [2] stood at 430000 nM; in experiment [1] it was 400000 nM.

In experiment [1], `O=C(O)[C@H]1CCC(=O)N1Cc1ccc(-c2ccccc2)cc1` gave an IC50 of 290000 nM.

As for `O=C(O)[C@H]1CCC(=O)N1Cc1ccccc1Cl`, the IC50 in experiment [1] is over 500000 nM.

`O=C(NO)[C@@H]1CCC(=O)N1S(=O)(=O)c1ccc(-c2ccccc2)cc1`: the IC50 in experiment [2] was determined as 1900 nM; in experiment [1], 1700 nM.

Take `O=C(NO)[C@@H]1CS(=O)(=O)CN1S(=O)(=O)c1ccc(-c2ccccc2)cc1`: the IC50 in experiment [5] was 500 nM; in experiment [2] it was 480 nM; in experiment [3], 2500 nM; in experiment [6] it was 100 nM; in experiment [1], 53 nM; in experiment [7] it was 3800 nM. Further, in experiment [4], half-maximal inhibition (IC50) was put at 4000 nM.

On to `O=C(NO)[C@H]1CCC(=O)N1Cc1ccc(-c2ccccc2)cc1`, for which the IC50 in experiment [2] worked out at 30000 nM; in experiment [1], 3000 nM.

As to `O=C(O)[C@@H]1CCC(=O)N1Cc1ccc(-c2ccccc2)cc1`, in experiment [1], the midpoint of inhibition, the IC50, lay at 340000 nM.

Consider `COc1ccc(Oc2ccc(S(=O)(=O)N3CSC[C@H]3C(=O)NO)cc2)cc1`, for which the IC50 was 2 nM in experiment [2] and 9 nM in experiment [1].

`O=C(O)[C@H]1CCC(=O)N1Cc1ccc(Cl)cc1`: the IC50 in experiment [1] was over 500000 nM.

For `O=C(NO)[C@@H]1C[S+]([O-])CN1S(=O)(=O)c1ccc(-c2ccccc2)cc1` (some centres not stated), the half-maximal inhibitory concentration (IC50) was 2500 nM in experiment [5]; 600 nM in experiment [2]; 4000 nM in experiment [3]; 400 nM in experiment [6]; 9 nM in experiment [1]; 160 nM in experiment [7]. Also, it took 2000 nM to reach half-maximal inhibition in experiment [4] (IC50).

For `O=C(O)[C@@H]1CCC(=O)N1Cc1ccc(Cl)cc1`, the IC50 in experiment [1] was 383000 nM.

`O=C(NO)[C@@H]1CSCN1S(=O)(=O)c1cccc2cccnc12`: the IC50 was 560 nM in experiment [2] and 710 nM in experiment [1].

Regarding `O=C(NO)[C@@H]1CSCN1Cc1ccc(-c2ccccc2)cc1`, in experiment [1], half-maximal inhibition (IC50) was put at 330000 nM.

On to `NC(=O)[C@@H]1CCC(=O)N1Cc1ccc(-c2ccccc2)cc1`, for which the IC50 in experiment [1] was over 500000 nM.

As for `O=C(NO)[C@H]1CCC(=O)N1Cc1ccccc1Cl`, the IC50 in experiment [2] and in experiment [1] was over 500000 nM each time.
